# Read-outs that look alike come from different tables or passages of the source.
# Experiments:
# Type in all cases: in vivo
# Plutella xylostella = assay: whole plant or invertebrate; conditions: Plutella xylostella, read-out: Plutella xylostella Mortality (%) 500 ppm
# Procedure, shortened: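 Leaf immersion feeding test: 2nd-instar larvae (about 35 per vessel, 3 replicates) kept at 28° C. on 1.0 cm cabbage discs soaked 5 s in a 500 ppm solution with 0.05% Tween-80. Mortality after 24 h of exposure, calculated relative to live larvae in the Tween-80 control.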
# Bombyx mori L. = assay: Toxicity test on 2nd-instar larvae of Bombyx mori L., leaf immersion feeding method; conditions: 1000 ppm, 24 hours
# Procedure, shortened: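 Second-instar silkworm larvae (~35 per vessel, 3 replicates) fed mulberry leaves dipped 5 s in 1000 ppm compound (0.05% Tween-80; DMSO stock diluted), held at 25 °C. Deaths counted after 24 hours; mortality % corrected against Tween-80 control survivors.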
# Aphis craccivora = assay: whole plant or invertebrate; conditions: Aphis craccivora, 24 h, read-out: Aphis craccivora Mortality (%) 500 ppm
# Procedure, shortened: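 Mortality scored 24 h after treatment as the reduction in live aphids versus a 0.05% Tween-80 control; three replicates, 23° C. Treatment was a 5 s immersion of wingless adults on bean sprouts in 500 ppm test solution containing 0.05% Tween-80, followed by air-drying.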
# Apis cernan = assay: Toxicity test on adult worker bees of Apis cernan, small beaker method; conditions: 500 ppm, 48 hours
# Procedure, shortened: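 Same-size adult Apis cernan workers, collected the test morning, exposed in groups of 15 to cotton soaked with 500 ppm test liquid (small beaker method). Kept sealed in a dark climate box; live and dead bees counted after 48 h.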
# Spodoptera exigua = assay: whole plant or invertebrate; conditions: Spodoptera exigua, 24 h, read-out: Spodoptera exigua Mortality (%) 500 ppm
# Procedure, shortened: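 Leaf immersion feeding: second-instar larvae (about 35 per vessel, triplicate) kept at 28° C on discs treated with 500 ppm test solution in 0.05% Tween-80. Mortality at 24 h, calculated relative to surviving larvae in the solvent control.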
# Solenopsis invicta = assay: whole plant or invertebrate; conditions: Solenopsis invicta, water test tube poison-feeding
# Procedure, shortened: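 Mortality (%) of Solenopsis invicta, computed against live counts in control tubes, was recorded 24 h and 72 h after treatment at 25 °C. Compound was offered by oral feeding in test tubes at 100 ppm, diluted from a 10 g/L DMSO stock into water with 5% honey and 0.05% Tween-80.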
# [1] = 24 h, read-out: Solenopsis invicta Mortality (%) 100 ppm 24 h, 100 ppm, 24 h
# [2] = 72 h, read-out: Solenopsis invicta Mortality (%) 100 ppm 72 h, 100 ppm, 72 h
SMILES,mortality at 500 ppm (Plutella xylostella) [%],Toxicity determination Bombyx mori L. Mortality (%) (Bombyx mori L.),mortality at 500 ppm (Aphis craccivora) [%],Toxicity determination Apis cernan Mortality (%) (Apis cernan),mortality at 500 ppm (Spodoptera exigua) [%],mortality at 100 ppm (Solenopsis invicta; [1]) [%],mortality at 100 ppm (Solenopsis invicta; [2]) [%]
C=CC1Nc2c(-c3cc(C)oc3C)c(C#N)nn2-c2c(Cl)cc(C(F)(F)F)cc21 (centres unmarked) [Compound C50],81,5,90,2,86,26,86
N#Cc1nn2c(c1[S+]([O-])C(F)(F)F)NC(C(O)CO)c1cc(C(F)(F)F)cc(Cl)c1-2 (centres unmarked) [Compound C51],87,9,79,5,85,19,86
Cc1cc(-c2c(C#N)nn3c2NC(C(O)CO)c2cc(C(F)(F)F)cc(Cl)c2-3)c(C)o1 (centres unmarked) [Compound C52],90,10,100,7,91,22,90
N#Cc1nn2c(c1[S+]([O-])C(F)(F)F)NC(CC(F)(F)F)(C(O)CO)c1cc(C(F)(F)F)cc(Cl)c1-2 (centres unmarked) [Compound C56],82,6,91,8,87,27,80
COC(=O)/C=C/C1(CC#N)Nc2c([S+]([O-])C(F)(F)F)c(C#N)nn2-c2c(Cl)cc(C(F)(F)F)cc21 (centres unmarked) [Compound C58],100,4,100,4,100,29,98
C=CC1(C=C)Nc2c(Br)c(CC)nn2-c2c(Cl)cc(C(F)(F)F)cc21 [Compound C61],88,9,90,10,100,28,100
C=CC1(C=C)Nc2c(-c3cc(C)sc3C)c(CC)nn2-c2c(Cl)cc(C(F)(F)F)cc21 [Compound C62],80,10,97,11,85,27,100
CCc1nn2c(c1-c1cc(C)sc1C)NC(/C=C\C(=O)OC)(/C=C/C(=O)OC)c1cc(C(F)(F)F)cc(Cl)c1-2 (centres unmarked) [Compound C64],92,7,100,9,97,17,90

# From patent publication US11401271B2, “Fused heterocyclic compound, pyrazole-ring-containing fused heterocyclic compound, agricultural composition containing thereof, and method of using the composition” (SOUTH CHINA AGRICULTURAL UNIVERSITY, priority 2017, dated 2022)
